Laboratory results: ChEMBL document CHEMBL1201862, “PubChem BioAssay data set” (2004)
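Compound exposure: 48 hours, 5 concentrations, 96-well plates. Abbreviation: GI50, concentration required for 50% inhibition of growth.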 Calls of active or inactive are those of the source. Cut-off read from the data, not from the text of the source: active = GI50 up to about 1.1 µM and inactive = higher.

Legend:
Test in all cases: growth of human tumour cells (NCI), 48 h
DMS-273 = test system: DMS-273
ACHN = test system: ACHN
CAKI-1 = test system: CAKI-1
LXFL 529 = test system: LXFL 529
SNB-75 = test system: SNB-75
UO-31 = test system: UO-31
KM-20L2 = test system: KM-20L2
DMS-114 = test system: DMS-114
786-0 = test system: 786-0
K562 = test system: K562
UACC-62 = test system: UACC-62
M19-MEL = test system: M19-MEL
COLO 205 = test system: COLO 205
TK-10 = test system: TK-10
KM12 = test system: KM12
U-251 = test system: U-251
SK-MEL-2 = test system: SK-MEL-2
HCT-116 = test system: HCT-116
SK-MEL-28 = test system: SK-MEL-28
EKVX = test system: EKVX
A498 = test system: A498
SNB-19 = test system: SNB-19
IGROV-1 = test system: IGROV-1
SNB-78 = test system: SNB-78
MOLT-4 = test system: MOLT-4
HL-60 = test system: HL-60
SK-OV-3 = test system: SK-OV-3
LOX IMVI = test system: LOX IMVI
SK-MEL-5 = test system: SK-MEL-5
OVCAR-8 = test system: OVCAR-8
HOP-62 = test system: HOP-62
HT-29 = test system: HT-29
HOP-18 = test system: HOP-18
HCC 2998 = test system: HCC 2998
NCI-H23 = test system: NCI-H23
SF-295 = test system: SF-295
NCI-H460 = test system: NCI-H460
UACC-257 = test system: UACC-257
SW-620 = test system: SW-620
A549 = test system: A549
OVCAR-5 = test system: OVCAR-5
DLD-1 = test system: DLD-1
NCI-H226 = test system: NCI-H226
CCRF-CEM = test system: CCRF-CEM
RXF 631 = test system: RXF 631
OVCAR-3 = test system: OVCAR-3
OVCAR-4 = test system: OVCAR-4
Malme-3M = test system: Malme-3M
HCT-15 = test system: HCT-15
SF-268 = test system: SF-268
SN12C = test system: SN12C
M14 = test system: M14
NCI-H522 = test system: NCI-H522
RPMI-8226 = test system: RPMI-8226

Cc1cnc[nH]c1=O
GI50 (DMS-273): > 100 µM (inactive)
GI50 (ACHN): > 100 µM (inactive)
GI50 (CAKI-1): > 100 µM (inactive)
GI50 (LXFL 529): > 100 µM (inactive)
GI50 (SNB-75): > 100 µM (inactive)
GI50 (UO-31): > 100 µM (inactive)
GI50 (KM-20L2): > 100 µM (inactive)
GI50 (DMS-114): > 100 µM (inactive)
GI50 (786-0): > 100 µM (inactive)
GI50 (K562): > 100 µM (inactive)
GI50 (UACC-62): > 100 µM (inactive)
GI50 (M19-MEL): > 100 µM (inactive)
GI50 (COLO 205): > 100 µM (inactive)
GI50 (TK-10): > 100 µM (inactive)
GI50 (KM12): > 100 µM (inactive)
GI50 (U-251): > 100 µM (inactive)
GI50 (SK-MEL-2): > 100 µM (inactive)
GI50 (HCT-116): > 100 µM (inactive)
GI50 (SK-MEL-28): > 100 µM (inactive)
GI50 (EKVX): > 100 µM (inactive)
GI50 (A498): > 100 µM (inactive)
GI50 (SNB-19): > 100 µM (inactive)
GI50 (IGROV-1): > 100 µM (inactive)
GI50 (SNB-78): > 100 µM (inactive)
GI50 (MOLT-4): > 100 µM (inactive)
GI50 (HL-60): > 100 µM (inactive)
GI50 (SK-OV-3): > 100 µM (inactive)
GI50 (LOX IMVI): > 100 µM (inactive)
GI50 (SK-MEL-5): > 100 µM (inactive)
GI50 (OVCAR-8): > 100 µM (inactive)
GI50 (HOP-62): > 100 µM (inactive)
GI50 (HT-29): > 100 µM (inactive)
GI50 (HOP-18): > 100 µM (inactive)
GI50 (HCC 2998): > 100 µM (inactive)
GI50 (NCI-H23): > 100 µM (inactive)
GI50 (SF-295): > 100 µM (inactive)
GI50 (NCI-H460): > 100 µM (inactive)
GI50 (UACC-257): > 100 µM (inactive)
GI50 (SW-620): > 100 µM (inactive)
GI50 (A549): > 100 µM (inactive)
GI50 (OVCAR-5): > 100 µM (inactive)
GI50 (DLD-1): > 100 µM (inactive)
GI50 (NCI-H226): > 100 µM (inactive)
GI50 (CCRF-CEM): > 100 µM (inactive)
GI50 (RXF 631): > 100 µM (inactive)
GI50 (OVCAR-3): > 100 µM (inactive)
GI50 (OVCAR-4): > 100 µM (inactive)
GI50 (Malme-3M): > 100 µM (inactive)
GI50 (HCT-15): > 100 µM
GI50 (SF-268): > 100 µM (inactive)
GI50 (SN12C): > 100 µM (inactive)
GI50 (M14): > 100 µM (inactive)
GI50 (NCI-H522): > 100 µM (inactive)
GI50 (RPMI-8226): > 100 µM (inactive)
